Experimental data taken from patent US20200187502A1, “MICROBIOCIDAL OXADIAZOLE DERIVATIVES” (SYNGENTA PARTICIPATIONS AG, priority 2017, published 2020).

Legend:
[1] = tested on: Puccinia recondita f. Sp. Tritici; assay: Fungicidal activity, wheat leaf disc curative (brown rust); assay type: in vivo; conditions: foliar, 200 ppm in the applied formulation, wheat leaf segments cv. Kanzler, curative (applied 1 day after inoculation), compared to untreated control, 6 to 8 days after application, read-out: disease control
How it was run: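 Compounds, prepared from DMSO solutions of at most 10 mg/ml and diluted just before spraying, are applied curatively to inoculated Kanzler wheat leaf segments. Segments are incubated at 19° C and 75% RH in a climate cabinet; disease control relative to untreated is evaluated 6 to 8 days later.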

Phakopsora pachyrhizi = assay: Fungicidal activity, soybean leaf disc preventative (Asian soybean rust); assay type: in vivo; conditions: foliar, 200 ppm in the applied formulation, soybean leaf disks, compared to untreated control, 12 to 14 days after application, read-out: disease control
How it was run: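 Read-out is percent disease control relative to untreated check discs, assessed once untreated discs show adequate disease, 12 to 14 days after application. Compounds, tested at 200 ppm in the applied formulation, are sprayed onto soybean leaf discs one day before inoculation with a spore suspension.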

[2] = tested on: Puccinia recondita f. Sp. Tritici; assay: Fungicidal activity, wheat leaf disc preventative (brown rust); assay type: in vivo; conditions: foliar, 200 ppm in the applied formulation, wheat leaf segments cv. Kanzler, compared to untreated control, 7 to 9 days after application, read-out: disease control
How it was run: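 Preventative leaf-segment test: spray application of diluted formulated compound on wheat cv. Kanzler, spore inoculation after 1 day. Percent control relative to untreated segments rated 7 to 9 days post-application, with incubation at 19° C, 75% relative humidity, 12 h photoperiod.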

[3] = tested on: Glomerella lacenarium (Colletotrichum lacenarium); assay: Fungicidal activity, liquid culture, cucumber preventative (anthracnose); assay type: cell-based; conditions: 20 ppm in the applied formulation, liquid culture in PDB, inhibition of growth measured photometrically 3 to 4 days after application, compared to untreated control, read-out: disease control
How it was run: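 Spore-based broth assay: conidia mixed into PDB meet compound from a DMSO solution in 96-well format, incubate at 24° C., then inhibition of growth is determined by photometry 3–4 days later relative to the untreated check.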

CNC(=O)N(Cc1ccc(-c2noc(C(F)(F)F)n2)s1)C(C)C [Compound 4.13, 1-isopropyl-3-methyl-1-[[5-[5-(trifluoromethyl)-1,2,4-oxadiazol-3-yl]-2-thienyl]methyl]urea]
≥ 80%: pest or weed control at 200 ppm [1] | pest or weed control at 200 ppm (Phakopsora pachyrhizi) | pest or weed control at 200 ppm [2] | inhibition of growth at 20 ppm [3]

COC(C)C(=O)N(C)Cc1ccc(-c2noc(C(F)(F)F)n2)s1 (centres unmarked) [Compound 4.15, 2-methoxy-N-methyl-N-[[5-[5-(trifluoromethyl)-1,2,4-oxadiazol-3-yl]-2-thienyl]methyl]propanamide]
≥ 80%: pest or weed control at 200 ppm [1] | pest or weed control at 200 ppm (Phakopsora pachyrhizi) | pest or weed control at 200 ppm [2] | inhibition of growth at 20 ppm [3]

CCNC(=O)N(C)Cc1ccc(-c2noc(C(F)(F)F)n2)s1 [Compound 4.16, 3-ethyl-1-methyl-1-[[5-[5-(trifluoromethyl)-1,2,4-oxadiazol-3-yl]-2-thienyl]methyl]urea]
≥ 80%: pest or weed control at 200 ppm [1] | pest or weed control at 200 ppm (Phakopsora pachyrhizi) | pest or weed control at 200 ppm [2] | inhibition of growth at 20 ppm [3]

CC(C)NC(=O)N(C)Cc1ccc(-c2noc(C(F)(F)F)n2)s1 [Compound 4.17, 3-isopropyl-1-methyl-1-[[5-[5-(trifluoromethyl)-1,2,4-oxadiazol-3-yl]-2-thienyl]methyl]urea]
≥ 80%: pest or weed control at 200 ppm [1] | pest or weed control at 200 ppm (Phakopsora pachyrhizi) | pest or weed control at 200 ppm [2] | inhibition of growth at 20 ppm [3]

CNC(=O)N(Cc1ccc(-c2noc(C(F)(F)F)n2)s1)OCC(F)F [Compound 4.19, 1-(2,2-difluoroethoxy)-3-methyl-1-[[5-[5-(trifluoromethyl)-1,2,4-oxadiazol-3-yl]-2-thienyl]methyl]urea]
≥ 80%: pest or weed control at 200 ppm [1] | pest or weed control at 200 ppm (Phakopsora pachyrhizi) | pest or weed control at 200 ppm [2] | inhibition of growth at 20 ppm [3]

CCN(Cc1ccc(-c2noc(C(F)(F)F)n2)s1)C(=O)CCOC [Compound 4.25, N-ethyl-3-methoxy-N-[[5-[5-(trifluoromethyl)-1,2,4-oxadiazol-3-yl]-2-thienyl]methyl]propanamide]
≥ 80%: pest or weed control at 200 ppm [1] | pest or weed control at 200 ppm (Phakopsora pachyrhizi) | pest or weed control at 200 ppm [2] | inhibition of growth at 20 ppm [3]

CCC(=O)N(CC)Cc1ccc(-c2noc(C(F)(F)F)n2)s1 [Compound 4.26, N-ethyl-N-[[5-[5-(trifluoromethyl)-1,2,4-oxadiazol-3-yl]-2-thienyl]methyl]propanamide]
≥ 80%: pest or weed control at 200 ppm [1] | pest or weed control at 200 ppm (Phakopsora pachyrhizi) | pest or weed control at 200 ppm [2] | inhibition of growth at 20 ppm [3]

CCN(Cc1ccc(-c2noc(C(F)(F)F)n2)s1)C(=O)CCCOC [Compound 4.28, N-ethyl-4-methoxy-N-[[5-[5-(trifluoromethyl)-1,2,4-oxadiazol-3-yl]-2-thienyl]methyl]butanamide]
≥ 80%: pest or weed control at 200 ppm [1] | pest or weed control at 200 ppm (Phakopsora pachyrhizi) | pest or weed control at 200 ppm [2] | inhibition of growth at 20 ppm [3]

CC(=O)NCC(=O)N(C)Cc1ccc(-c2noc(C(F)(F)F)n2)s1 [Compound 4.33, 2-acetamido-N-methyl-N-[[5-[5-(trifluoromethyl)-1,2,4-oxadiazol-3-yl]-2-thienyl]methyl]acetamide]
≥ 80%: pest or weed control at 200 ppm [1] | pest or weed control at 200 ppm (Phakopsora pachyrhizi) | pest or weed control at 200 ppm [2] | inhibition of growth at 20 ppm [3]

COCCC(=O)N(C)Cc1ccc(-c2noc(C(F)(F)F)n2)s1 [Compound 4.35, 3-methoxy-N-methyl-N-[[5-[5-(trifluoromethyl)-1,2,4-oxadiazol-3-yl]-2-thienyl]methyl]propanamide]
≥ 80%: pest or weed control at 200 ppm [1] | pest or weed control at 200 ppm (Phakopsora pachyrhizi) | pest or weed control at 200 ppm [2] | inhibition of growth at 20 ppm [3]

CCC(C)C(=O)N(C)Cc1ccc(-c2noc(C(F)(F)F)n2)s1 (centres unmarked) [Compound 4.37, N,2-dimethyl-N-[[5-[5-(trifluoromethyl)-1,2,4-oxadiazol-3-yl]-2-thienyl]methyl]butanamide]
≥ 80%: pest or weed control at 200 ppm [1] | pest or weed control at 200 ppm (Phakopsora pachyrhizi) | pest or weed control at 200 ppm [2] | inhibition of growth at 20 ppm [3]

COCCCC(=O)N(C)Cc1ccc(-c2noc(C(F)(F)F)n2)s1 [Compound 4.38, 4-methoxy-N-methyl-N-[[5-[5-(trifluoromethyl)-1,2,4-oxadiazol-3-yl]-2-thienyl]methyl]butanamide]
≥ 80%: pest or weed control at 200 ppm [1] | pest or weed control at 200 ppm (Phakopsora pachyrhizi) | pest or weed control at 200 ppm [2] | inhibition of growth at 20 ppm [3]

CN(Cc1ccc(-c2noc(C(F)(F)F)n2)s1)C(=O)CC(F)(F)F [Compound 4.40, 3,3,3-trifluoro-N-methyl-N-[[5-[5-(trifluoromethyl)-1,2,4-oxadiazol-3-yl]-2-thienyl]methyl]propanamide]
≥ 80%: pest or weed control at 200 ppm [1] | pest or weed control at 200 ppm (Phakopsora pachyrhizi) | pest or weed control at 200 ppm [2] | inhibition of growth at 20 ppm [3]

COCCC(=O)N(Cc1ccc(-c2noc(C(F)(F)F)n2)s1)C(C)C [Compound 4.45, N-isopropyl-3-methoxy-N-[[5-[5-(trifluoromethyl)-1,2,4-oxadiazol-3-yl]-2-thienyl]methyl]propanamide]
≥ 80%: pest or weed control at 200 ppm [1] | pest or weed control at 200 ppm (Phakopsora pachyrhizi) | pest or weed control at 200 ppm [2] | inhibition of growth at 20 ppm [3]

COCC(=O)N(Cc1ccc(-c2noc(C(F)(F)F)n2)s1)C1CC1 [Compound 4.52, N-cyclopropyl-2-methoxy-N-[[5-[5-(trifluoromethyl)-1,2,4-oxadiazol-3-yl]-2-thienyl]methyl]acetamide]
≥ 80%: pest or weed control at 200 ppm [1] | pest or weed control at 200 ppm (Phakopsora pachyrhizi) | pest or weed control at 200 ppm [2] | inhibition of growth at 20 ppm [3]

CCCC(=O)N(Cc1ccc(-c2noc(C(F)(F)F)n2)s1)C1CC1 [Compound 4.54, N-cyclopropyl-N-[[5-[5-(trifluoromethyl)-1,2,4-oxadiazol-3-yl]-2-thienyl]methyl]butanamide]
≥ 80%: pest or weed control at 200 ppm [1] | pest or weed control at 200 ppm (Phakopsora pachyrhizi) | pest or weed control at 200 ppm [2] | inhibition of growth at 20 ppm [3]

COCCC(=O)N(Cc1ccc(-c2noc(C(F)(F)F)n2)s1)C1CC1 [Compound 4.55, N-cyclopropyl-3-methoxy-N-[[5-[5-(trifluoromethyl)-1,2,4-oxadiazol-3-yl]-2-thienyl]methyl]propanamide]
≥ 80%: pest or weed control at 200 ppm [1] | pest or weed control at 200 ppm (Phakopsora pachyrhizi) | pest or weed control at 200 ppm [2] | inhibition of growth at 20 ppm [3]

CCC(=O)N(Cc1ccc(-c2noc(C(F)(F)F)n2)s1)C1CC1 [Compound 4.56, N-cyclopropyl-N-[[5-[5-(trifluoromethyl)-1,2,4-oxadiazol-3-yl]-2-thienyl]methyl]propanamide]
≥ 80%: pest or weed control at 200 ppm [1] | pest or weed control at 200 ppm (Phakopsora pachyrhizi) | pest or weed control at 200 ppm [2] | inhibition of growth at 20 ppm [3]

COCCCC(=O)N(Cc1ccc(-c2noc(C(F)(F)F)n2)s1)C1CC1 [Compound 4.58, N-cyclopropyl-4-methoxy-N-[[5-[5-(trifluoromethyl)-1,2,4-oxadiazol-3-yl]-2-thienyl]methyl]butanamide]
≥ 80%: pest or weed control at 200 ppm [1] | pest or weed control at 200 ppm (Phakopsora pachyrhizi) | pest or weed control at 200 ppm [2] | inhibition of growth at 20 ppm [3]

COCCC(=O)N(Cc1ccc(-c2noc(C(F)(F)F)n2)s1)OCC(F)F [Compound 4.64, N-(2,2-difluoroethoxy)-3-methoxy-N-[[5-[5-(trifluoromethyl)-1,2,4-oxadiazol-3-yl]-2-thienyl]methyl]propanamide]
≥ 80%: pest or weed control at 200 ppm [1] | pest or weed control at 200 ppm (Phakopsora pachyrhizi) | pest or weed control at 200 ppm [2] | inhibition of growth at 20 ppm [3]

CCN(Cc1ccc(-c2noc(C(F)(F)F)n2)s1)C(=O)N(C)CC#N [Compound 4.70, 1-(cyanomethyl)-3-ethyl-1-methyl-3-[[5-[5-(trifluoromethyl)-1,2,4-oxadiazol-3-yl]-2-thienyl]methyl]urea]
≥ 80%: pest or weed control at 200 ppm [1] | pest or weed control at 200 ppm (Phakopsora pachyrhizi) | pest or weed control at 200 ppm [2] | inhibition of growth at 20 ppm [3]

C=CCN(C)C(=O)N(CC)Cc1ccc(-c2noc(C(F)(F)F)n2)s1 [Compound 4.71, 1-allyl-3-ethyl-1-methyl-3-[[5-[5-(trifluoromethyl)-1,2,4-oxadiazol-3-yl]-2-thienyl]methyl]urea]
≥ 80%: pest or weed control at 200 ppm [1] | pest or weed control at 200 ppm (Phakopsora pachyrhizi) | pest or weed control at 200 ppm [2] | inhibition of growth at 20 ppm [3]

CCN(Cc1ccc(-c2noc(C(F)(F)F)n2)s1)C(=O)NCCOC [Compound 4.72, 1-ethyl-3-(2-methoxyethyl)-1-[[5-[5-(trifluoromethyl)-1,2,4-oxadiazol-3-yl]-2-thienyl]methyl]urea]
≥ 80%: pest or weed control at 200 ppm [1] | pest or weed control at 200 ppm (Phakopsora pachyrhizi) | pest or weed control at 200 ppm [2] | inhibition of growth at 20 ppm [3]
